Test results reported in ChEMBL document CHEMBL4382231, “Chemical preparation, biological evaluation and 3D-QSAR of ethoxysulfuron derivatives as novel antifungal agents targeting acetohydroxyacid synthase” (Eur J Med Chem, 2019).

What was measured:
[1] = Inhibition of Candida albicans AHAS catalytic subunit using pyruvate as substrate measured after 30 mins by colorimetric method
Candida albicans [2] = assay: Antifungal activity against Candida albicans SC5314 cultured in RPMI 1640 media after 24 hrs by broth microdilution method; assay type: functional; details: SC5314, 24 h
Candida albicans [3] = assay: Antifungal activity against Candida albicans SC5314 cultured in YNB media after 24 hrs by broth microdilution method; assay type: functional; details: SC5314, 24 h

Compound | Ki [1] [nM] | pKi [1] | MIC (Candida albicans [2]) [µg/mL] | MIC (Candida albicans [3]) [µg/mL]
Cc1cc(C)nc(NC(=O)[N-]S(=O)(=O)Oc2ccccc2OCCCl)n1.[Na+] | 822 | 6.08 | > 100 | > 100
COc1cc(Cl)nc(NC(=O)[N-]S(=O)(=O)Oc2ccccc2C(=O)OCC(F)(F)F)n1.[Na+] | 265 | 6.57 | > 100 | > 100
CCCOC(=O)c1ccccc1OS(=O)(=O)[N-]C(=O)Nc1nc(Cl)cc(OC)n1.[Na+] | 235 | 6.62 | > 100 | > 100
COc1cc(Br)nc(NC(=O)[N-]S(=O)(=O)Oc2ccccc2[N+](=O)[O-])n1.[Na+] | 247 | 6.6 | > 100 | > 100
COc1cc(Br)nc(NC(=O)[N-]S(=O)(=O)Oc2ccccc2OCCCl)n1.[Na+] | 69 | 7.13 | > 100 | > 100
CCCOC(=O)c1ccccc1OS(=O)(=O)[N-]C(=O)Nc1nc(OC)cc(OC)n1.[Na+] | 260 | 6.59 | > 100 | > 100
CCOC(=O)c1cccc(OS(=O)(=O)[N-]C(=O)Nc2nc(C)cc(Cl)n2)c1.[Na+] | > 50000 |  | > 100 | > 100
Cc1cc(C)nc(NC(=O)[N-]S(=O)(=O)Oc2ccccc2C(=O)OCCI)n1.[Na+] | 15000 | 4.82 | > 100 | > 100
COc1cc(I)nc(NC(=O)[N-]S(=O)(=O)Oc2ccccc2[N+](=O)[O-])n1.[Na+] | 523 | 6.28 | > 100 | 40
COc1cc(C)nc(NC(=O)[N-]S(=O)(=O)Oc2ccccc2C(=O)OCCI)n1.[Na+] | 610 | 6.21 | > 100 | > 100
Cc1cc(Cl)nc(NC(=O)[N-]S(=O)(=O)Oc2ccccc2C(=O)Oc2ccccc2)n1.[Na+] | > 50000 |  | > 100 | > 100
Cc1cc(C)nc(NC(=O)[N-]S(=O)(=O)Oc2ccccc2C(=O)OCCCl)n1.[Na+] | 3360 | 5.48 | > 100 | > 100
CCCOC(=O)c1ccccc1OS(=O)(=O)[N-]C(=O)Nc1nc(C)cc(C)n1.[Na+] | 2690 | 5.57 | > 100 | > 100
CCOC(=O)c1ccc(OS(=O)(=O)[N-]C(=O)Nc2nc(OC)cc(OC)n2)cc1.[Na+] | > 50000 |  | > 100 | > 100
Cc1cc(C)nc(NC(=O)[N-]S(=O)(=O)Oc2ccccc2C(=O)OC(C)C)n1.[Na+] | 9840 | 5 | > 100 | > 100
COc1cc(Br)nc(NC(=O)[N-]S(=O)(=O)Oc2ccccc2C(=O)OC(C)C)n1.[Na+] | 1510 | 5.82 | > 100 | > 100
COc1cc(OC)nc(NC(=O)[N-]S(=O)(=O)Oc2ccccc2C(=O)OCC(F)(F)F)n1.[Na+] | 78 | 7.11 | > 100 | 10
CCCOC(=O)c1ccccc1OS(=O)(=O)[N-]C(=O)Nc1nc(I)cc(OC)n1.[Na+] | 862 | 6.06 | > 100 | > 100
CCOC(=O)c1ccccc1OS(=O)(=O)[N-]C(=O)Nc1nc(Cl)cc(OC)n1.[Na+] | 7.5 | 8.12 | > 100 | 40
COc1cc(OC)nc(NC(=O)[N-]S(=O)(=O)Oc2ccccc2C(=O)OC(C)C)n1.[Na+] | 405 | 6.4 | > 100 | 20
Cc1cc(C)nc(NC(=O)[N-]S(=O)(=O)Oc2ccc([N+](=O)[O-])cc2)n1.[Na+] | 5660 | 5.24 | > 100 | > 100

Compound | Ki [1] [nM] | pKi [1] | MIC (Candida albicans [2]) [µg/mL] | MIC (Candida albicans [3]) [µg/mL]
Cc1cc(C)nc(NC(=O)[N-]S(=O)(=O)Oc2ccccc2C(=O)Oc2ccccc2)n1.[Na+] | 25700 | 4.6 | > 100 | > 100
COc1cc(C)nc(NC(=O)[N-]S(=O)(=O)Oc2ccccc2C(=O)OC(C)C)n1.[Na+] | 268 |  | > 100 | 80
CCOC(=O)c1cccc(OS(=O)(=O)[N-]C(=O)Nc2nc(C)cc(C)n2)c1.[Na+] | 36800 | 4.44 | > 100 | > 100
Cc1cc(Cl)nc(NC(=O)[N-]S(=O)(=O)Oc2ccccc2C(=O)OCCI)n1.[Na+] | 2330 | 5.64 | > 100 | > 100
Cc1cc(Cl)nc(NC(=O)[N-]S(=O)(=O)Oc2ccccc2[N+](=O)[O-])n1.[Na+] | 103 | 6.99 | > 100 | 40
CCCOC(=O)c1ccccc1OS(=O)(=O)[N-]C(=O)Nc1nc(C)cc(OC)n1.[Na+] | 1490 |  | > 100 | > 100
CCCOC(=O)c1ccccc1OS(=O)(=O)[N-]C(=O)Nc1nc(Br)cc(OC)n1.[Na+] | 758 | 6.16 | > 100 | > 100
COC(=O)c1ccccc1OS(=O)(=O)[N-]C(=O)Nc1nc(I)cc(OC)n1.[Na+] | 66 | 7.18 | > 100 | > 100
COC(=O)c1ccccc1OS(=O)(=O)[N-]C(=O)Nc1nc(Br)cc(OC)n1.[Na+] | 643 | 6.28 | > 100 | > 100
CCCOC(=O)c1ccccc1OS(=O)(=O)[N-]C(=O)Nc1nc(C)cc(Cl)n1.[Na+] | 35500 |  | > 100 | > 100
CCOC(=O)c1ccccc1OS(=O)(=O)[N-]C(=O)Nc1nc(C)cc(Cl)n1.[Na+] | 37.1 | 7.43 | > 100 | > 100
COc1cc(I)nc(NC(=O)[N-]S(=O)(=O)Oc2ccccc2OCCI)n1.[Na+] | 637 | 6.18 | > 100 | 20
Cc1cc(Cl)nc(NC(=O)[N-]S(=O)(=O)Oc2ccccc2C(=O)OCCCl)n1.[Na+] | 761 | 6.09 | > 100 | > 100
COc1cc(Br)nc(NC(=O)[N-]S(=O)(=O)Oc2ccccc2C(=O)OCCI)n1.[Na+] | 980 | 6.01 | > 100 | > 100
Cc1cc(Cl)nc(NC(=O)[N-]S(=O)(=O)Oc2ccccc2C(=O)OC(C)C)n1.[Na+] | 22900 | 4.64 | > 100 | > 100
COc1cc(Cl)nc(NC(=O)[N-]S(=O)(=O)Oc2ccccc2C(=O)Oc2ccccc2)n1.[Na+] | 25400 | 4.58 | > 100 | > 100
COc1cc(C)nc(NC(=O)[N-]S(=O)(=O)Oc2ccccc2OCCCl)n1.[Na+] | 78 | 7.1 | 25 | 10
COc1cc(Cl)nc(NC(=O)[N-]S(=O)(=O)Oc2ccccc2C(=O)OCCI)n1.[Na+] | 547 | 6.26 | > 100 | > 100
COc1cc(C)nc(NC(=O)[N-]S(=O)(=O)Oc2ccccc2C(=O)OCC(F)(F)F)n1.[Na+] | 310 | 6.51 | > 100 | 20
COc1cc(Cl)nc(NC(=O)[N-]S(=O)(=O)Oc2ccccc2[N+](=O)[O-])n1.[Na+] | 265 | 6.58 | > 100 | > 100
COc1cc(OC)nc(NC(=O)[N-]S(=O)(=O)Oc2ccccc2C(=O)Oc2ccccc2)n1.[Na+] | 5860 | 5.23 | > 100 | > 100
